Experimental data from patent US20050197336A1 (Miikana Therapeutics Corporation, priority 2004, published 2005).

Tests used:
MCF7 cells = assay: Whole cell cytotoxicity assay: Sulforhodamine B; type: cell-based, human; conditions: Homo sapiens; compound at 100 μM; MCF7 cell growth; 48 hours with drug; SRB staining
Protocol: The following procedure can be found on the Developmental Therapeutics Program NCI/NIH web site at http://dtp.nci.nih.gov/brancehes/btb/ivclsp.html.
1. Human tumor cell lines of HT29, A549 and MCF7 are grown in DMEM containing 10% fetal bovine serum and 2 mM L-glutamine. Cells are plated in a 96 well plate at a density of 5000 cells per well in 100 μL of growth medium and incubated at 37° C., 5% CO2, for 24 hours prior to the addition of experimental compounds.
2. Experimental drugs are solubilized in DMSO for a final concentration of 20 mM immediately prior to use. Drugs are further diluted in growth media for a total of nine drug concentrations and a growth control. At the 24 hour time point, one plate of cells is fixed in situ with TCA as a measurement of the cell population at time zero, or the time of drug addition.
3. The plates are further incubated with drug for an additional 48 hours.
4. The cells are fixed in situ by gently aspirating off the culture media and then adding 50 μL of ice cold 10% TCA per well and incubated at 4° C. for 60 minutes. The plates are washed with tap water five times and allowed to air dry for 5 minute.
5. 50 μL of a 0.4% (w/v) Sulforhodamine B solution in 1% (v/v) acetic acid is added per well and incubated for 30 minutes at room temperature.
6. Following staining, plates are washed five times with 1% acetic acid to remove any unbound dye and then allowed to air dry for 5 minutes.
7. Stain is solubilized with 100 μL of 10 mM Tris pH 10.5 per well and placed on an orbital rotator for 5 minutes.
8. Absorbance is read at 570 nm.

[1] = tested on: Histone deacetylase (HDAC), HeLa cell nuclear extract; assay: In vitro fluorescent histone deacetylase assay (Biomol kit, HeLa cell nuclear extract); type: biochemical; conditions: compound at 100 μM; HeLa cell nuclear extract as HDAC source; substrate 50 μM; 10 min at room temperature
Protocol: Histone deacetylase (HDAC) activity assays were performed using the HDAC fluorescent activity assay/drug discovery kit (Biomol Research Laboratories, Plymouth Meeting, Pa.) essentially according to the manufacturer's instructions. The included HeLa cell nuclear extract, which contains a mosaic of HDAC enzymes and other nuclear factors, was used as the source of HDAC activity. The final substrate concentration in the assay mixture was 50 μM. The reaction was allowed to proceed for 10 min at room temperature before stopping the reaction. Test compounds were prepared as 20 mM stock solutions in DMSO (Molecular Biology grade, Sigma-Aldrich Co. St. Louis, Mo.) and stored at −70° C. Serial dilutions of test compounds were prepared in assay buffer immediately prior to testing. DMSO was determined in a separate trial to have no significant effect on the activity of this assay at concentrations up to 5%; the final DMSO concentration in the wells was no more than 2% and therefore DMSO effects were safely neglected. Assays were performed in white polystyrene 96-well half-area assay plates (Corning, Corning, N.Y.) and measured on a Wallace 1420 fluorescent plate reader (Wallac Oy, Turku, Finland) with an excitation wavelength of 355 nm, an emission wavelength of 460 nm, and a 1 sec signal averaging time.

| SMILES | inhibition at 100 µM (MCF7 cells) [%] | % inhibition HDAC @ 100 μM [1] [%] |
| --- | --- | --- |
| O=C(NO)c1cnc(N2CCN(S(=O)(=O)c3cccc(Cl)c3)CC2)s1 [Example 18, 2-[4-(3-chlorophenylsulfonyl)-piperazin-1-yl]-thiazole-5-carboxylic acid hydroxyamide] | 96.6 | 95 |
| CS(=O)(=O)c1ccc(S(=O)(=O)N2CCN(c3ncc(C(=O)NO)s3)CC2)cc1 [Example 19, 2-[4-(4-methylsufonylphenylsulfonyl)-piperazin-1-yl]-thiazole-5-carboxylic acid hydroxyamide] | 76.5 | 99 |
| O=C(NO)c1cnc(N2CCN(S(=O)(=O)/C=C/c3ccccc3)CC2)s1 [Example 20, 2-[4-(trans-2-phenylethanelsulfonyl)piperazin-1-yl]-thiazole-5-carboxylic acid hydroxyamide] | 97.9 | 97 |
| Cc1ccccc1S(=O)(=O)N1CCN(c2ncc(C(=O)NO)s2)CC1 [Example 21, 2-[4-(2-methylphenylsulfonyl)piperazin-1-yl]-thiazole-5-carboxylic acid hydroxyamide] | 97.1 | 100 |
| Cc1cccc(S(=O)(=O)N2CCN(c3ncc(C(=O)NO)s3)CC2)c1 [Example 22, 2-[4-(3-methylphenylsulfonyl)-piperazin-1-yl]-thiazole-5-carboxylic acid hydroxyamide] | 98 | 100 |
| CCCc1ccc(S(=O)(=O)N2CCN(c3ncc(C(=O)NO)s3)CC2)cc1 [Example 23, 2-[4-(4-n-propylphenylsulfonyl)-piperazin-1-yl]-thiazole-5-carboxylic acid hydroxyamide] | 96.7 | 99 |
| Cc1cc(C)cc(S(=O)(=O)N2CCN(c3ncc(C(=O)NO)s3)CC2)c1 [Example 24, 2-[4-(3,5-dimethylphenylsulfonyl)-piperazin-1-yl]-thiazole-5-carboxylic acid hydroxyamide] | 95.3 | 100 |
| CC(C)(C)c1ccc(S(=O)(=O)N2CCN(c3ncc(C(=O)NO)s3)CC2)cc1 [Example 25, 2-[4-(4-t-butylphenylsulfonyl)-piperazin-1-yl]-thiazole-5-carboxylic acid hydroxyamide] | 90.1 | 98 |
| O=C(NO)c1cnc(N2CCN(S(=O)(=O)Cc3ccccc3)CC2)s1 [Example 26, 2-[4-(benzylsulfonyl)piperazin-1-yl]-thiazole-5-carboxylic acid hydroxyamide] | 90 | 98 |
| Cc1noc(C)c1S(=O)(=O)N1CCN(c2ncc(C(=O)NO)s2)CC1 [Example 27, 2-[4-(3,5-dimethylisoxazolesulfonyl)-pipiperazin-1-yl]-thiazole-5-carboxylic acid hydroxyamide] | 88.5 | 99 |
| CN(C)c1ccc(S(=O)(=O)N2CCN(c3ncc(C(=O)NO)s3)CC2)cc1 [Example 29, 2-[4-(4-dimethylaminophenylsulfonyl)-piperazin-1-yl]-thiazole-5-carboxylic acid hydroxyamide] | 98.5 | 100 |
| Cc1ccc(S(=O)(=O)N2CCN(c3ncc(C(=O)NO)s3)CC2)cc1Cl [Example 30, 2-[4-(3-chloro-4-methylphenylsulfonyl)-piperazin-1-yl]-thiazole-5-carboxylic acid hydroxyamide] | 97.9 | 99 |
| Cc1c(Cl)cccc1S(=O)(=O)N1CCN(c2ncc(C(=O)NO)s2)CC1 [Example 32, 2-[4-(3-chloro-2-methylphenylsulfonyl)-piperazin-1-yl]-thiazole-5-carboxylic acid hydroxyamide] | 98.1 | 99 |
